Measurements taken from patent publication US9169270B2, “1-phenyl-substituted heterocyclyl derivatives and their use as prostaglandin D2 receptor modulators” (Actelion Pharmaceuticals Ltd., priority 2012, dated 2015).

Target: hCRTH2 receptor (Homo sapiens (Human), UniProt Q9Y5Y4)
Test: hCRTH2 receptor membranes radioligand (3H-PGD2) displacement assay
Conditions: hCRTH2 membrane fragments, Binding-Buffer with 0.1% BSA
Description: Biological Assays: Preparation of hCRTH2 Receptor Membranes and Radioligand Displacement Assay:
First, recombinant HEK293-hCRTH2 cells were detached from culture plates into 5 ml buffer A/plate (Buffer A: 5 mM Tris, 1 mM MgCl2-6H2O pH=7.4) using a rubber policeman. Cells were then transferred into centrifugation tubes and centrifuged for 5 min at 400 g. The cell pellet was resuspended in the same buffer and tubes were frozen at −80° C. Cells were thawed and membrane fragments were generated by homogenization using a polytron homogenizer (30 seconds). The membrane fragments were then centrifuged at 3000 g for 20 minutes and resuspended in buffer C (Buffer C: 75 mM Tris, 25 mM MgCl2, 250 mM Saccharose pH 7.4). Aliquots of membrane fragments were stored at −20° C.
Binding assay was performed in a final assay volume of 250 μl. First, 25 μl of test compound, previously diluted in Binding-Buffer (Binding-Buffer: 50 mM Tris-Base, 100 mM NaCl, 1 mM EDTA, 0.1% BSA (protease free), 0.01% NaN3, 10 mM MnCl2, pH 7.0) was placed into each well. […] Binding assay was started by addition of 100 μl CRTH2 membrane fragments, reaching a final concentration of 20 μg/well. For non-specific binding, PGD2 was added to the reaction mixture to […] final concentration. This assay mix was incubated for 90 minutes at room temperature and then filtered through a GF/C filter 96-well plate which was pre-soaked for 3 hours in 0.5% polyethyleneimine (PEI). The filter-wells were washed three times with ice cold Binding-Buffer. Then, 40 μl of Microscint-40 (Packard) was added to each well and the retained radioactivity quantified in a Topcount (Packard).

Sequence of hCRTH2 receptor (Q9Y5Y4 whole entry): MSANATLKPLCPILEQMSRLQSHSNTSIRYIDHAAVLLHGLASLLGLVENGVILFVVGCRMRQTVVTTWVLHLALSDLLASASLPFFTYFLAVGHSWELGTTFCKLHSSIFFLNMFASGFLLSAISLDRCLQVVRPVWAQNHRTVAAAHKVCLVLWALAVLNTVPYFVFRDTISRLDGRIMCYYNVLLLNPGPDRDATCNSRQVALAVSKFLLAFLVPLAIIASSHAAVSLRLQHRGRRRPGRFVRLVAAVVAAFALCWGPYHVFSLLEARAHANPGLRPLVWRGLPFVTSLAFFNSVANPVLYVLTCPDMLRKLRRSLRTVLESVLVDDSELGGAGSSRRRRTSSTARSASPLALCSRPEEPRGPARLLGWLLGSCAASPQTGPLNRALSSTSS

Row | Structure (SMILES) | IC50 [nM]
1 | O=C(O)COc1ccc(Cl)cc1C1c2scnc2CCN1C(=O)OCCc1cccc(F)c1 (racemic) [Example 77, (±)-4-(2-Carboxymethoxy-5-chloro-phenyl)-6,7-dihydro-4H-thiazolo[5,4-c]pyridine-5-carboxylic acid 2-(3-fluoro-phenyl)-ethyl ester] | 2.3
2 | O=C(O)COc1ccc(Cl)cc1C1c2scnc2CCN1C(=O)OCc1ccccc1F (racemic) [Example 79, (±)-4-(2-Carboxymethoxy-5-chloro-phenyl)-6,7-dihydro-4H-thiazolo[5,4-c]pyridine-5-carboxylic acid 2-fluoro-benzyl ester] | 3
3 | O=C(O)COc1ccc(Cl)cc1C1c2scnc2CCN1C(=O)OCc1ccc(F)cc1 (racemic) [Example 80, (±)-4-(2-Carboxymethoxy-5-chloro-phenyl)-6,7-dihydro-4H-thiazolo[5,4-c]pyridine-5-carboxylic acid 4-fluoro-benzyl ester] | 1.9
4 | O=C(O)COc1ccc(Cl)cc1C1c2scnc2CCN1C(=O)OCc1cccc(Cl)c1Cl (racemic) [Example 81, (±)-4-(2-Carboxymethoxy-5-chloro-phenyl)-6,7-dihydro-4H-thiazolo[5,4-c]pyridine-5-carboxylic acid 2,3-dichloro-benzyl ester] | 1.2
5 | O=C(O)COc1ccc(Cl)cc1C1c2scnc2CCN1C(=O)OCc1cccc(F)c1F (racemic) [Example 82, (±)-4-(2-Carboxymethoxy-5-chloro-phenyl)-6,7-dihydro-4H-thiazolo[5,4-c]pyridine-5-carboxylic acid 2,3-difluoro-benzyl ester] | 8.5
6 | O=C(O)COc1ccc(Cl)cc1C1c2scnc2CCN1C(=O)OCc1ccccc1Cl (racemic) [Example 84, (±)-4-(2-Carboxymethoxy-5-chloro-phenyl)-6,7-dihydro-4H-thiazolo[5,4-c]pyridine-5-carboxylic acid 2-chloro-benzyl ester] | 3.5
7 | O=C(O)COc1ccc(Cl)cc1C1c2scnc2CCN1C(=O)OCc1ccc(Cl)cc1 (racemic) [Example 86, (±)-4-(2-Carboxymethoxy-5-chloro-phenyl)-6,7-dihydro-4H-thiazolo[5,4-c]pyridine-5-carboxylic acid 4-chloro-benzyl ester] | 1.7
8 | O=C(O)COc1ccc(Cl)cc1C1c2scnc2CCN1C(=O)OCCc1ccccc1 (racemic) [Example 88, (±)-4-(2-Carboxymethoxy-5-chloro-phenyl)-6,7-dihydro-4H-thiazolo[5,4-c]pyridine-5-carboxylic acid phenethyl ester] | 6.4
9 | O=C(O)COc1ccc(Cl)cc1C1c2scnc2CCN1C(=O)OCn1ncc2ccccc21 (racemic) [Example 90, (±)-4-(2-Carboxymethoxy-5-chloro-phenyl)-6,7-dihydro-4H-thiazolo[5,4-c]pyridine-5-carboxylic acid indazol-1-ylmethyl ester] | 1.6
10 | CCn1nc(C)cc1CCOC(=O)N1CCc2ncsc2C1c1cc(Cl)ccc1OCC(=O)O (racemic) [Example 91, (±)-4-(2-Carboxymethoxy-5-chloro-phenyl)-6,7-dihydro-4H-thiazolo[5,4-c]pyridine-5-carboxylic acid 2-(2-ethyl-5-methyl-2H-pyrazol-3-yl)-ethyl ester] | 3.7
11 | O=C(O)COc1ccc(Cl)cc1C1c2scnc2CCN1C(=O)OCc1cc(F)ccc1Cl (racemic) [Example 92, (±)-4-(2-Carboxymethoxy-5-chloro-phenyl)-6,7-dihydro-4H-thiazolo[5,4-c]pyridine-5-carboxylic acid 2-chloro-5-fluoro-benzyl ester] | 2.2
12 | O=C(O)COc1ccc(Cl)cc1C1c2scnc2CCN1C(=O)OCc1cc(F)ccc1F (racemic) [Example 93, (±)-4-(2-Carboxymethoxy-5-chloro-phenyl)-6,7-dihydro-4H-thiazolo[5,4-c]pyridine-5-carboxylic acid 2,5-difluoro-benzyl ester] | 1.3
13 | O=C(O)COc1ccc(Cl)cc1C1c2scnc2CCN1C(=O)OCc1ccc(Cl)cc1Cl (racemic) [Example 94, (±)-4-(2-Carboxymethoxy-5-chloro-phenyl)-6,7-dihydro-4H-thiazolo[5,4-c]pyridine-5-carboxylic acid 2,4-dichloro-benzyl ester] | 17.1
14 | O=C(O)COc1ccc(Cl)cc1C1c2scnc2CCN1C(=O)OCc1nc2ccccc2o1 (racemic) [Example 97, (±)-4-(2-Carboxymethoxy-5-chloro-phenyl)-6,7-dihydro-4H-thiazolo[5,4-c]pyridine-5-carboxylic acid benzooxazol-2-ylmethyl ester] | 5.1
15 | CC(C)COC(=O)N1CCc2ncsc2C1c1cc(Cl)ccc1OCC(=O)O (racemic) [Example 98, (±)-4-(2-Carboxymethoxy-5-chloro-phenyl)-6,7-dihydro-4H-thiazolo[5,4-c]pyridine-5-carboxylic acid isobutyl ester] | 17.8
16 | CCCCOC(=O)N1CCc2ncsc2C1c1cc(Cl)ccc1OCC(=O)O (racemic) [Example 99, (±)-4-(2-Carboxymethoxy-5-chloro-phenyl)-6,7-dihydro-4H-thiazolo[5,4-c]pyridine-5-carboxylic acid butyl ester] | 11.8
17 | Cc1ccc(COC(=O)N2CCc3ncsc3C2c2cc(Cl)ccc2OCC(=O)O)c(C)c1 (racemic) [Example 100, (±)-4-(2-Carboxymethoxy-5-chloro-phenyl)-6,7-dihydro-4H-thiazolo[5,4-c]pyridine-5-carboxylic acid 2,4-dimethyl-benzyl ester] | 7.1
18 | Cc1cccc(COC(=O)N2CCc3ncsc3C2c2cc(Cl)ccc2OCC(=O)O)c1C (racemic) [Example 101, (±)-4-(2-Carboxymethoxy-5-chloro-phenyl)-6,7-dihydro-4H-thiazolo[5,4-c]pyridine-5-carboxylic acid 2,3-dimethyl-benzyl ester] | 6.1
19 | N#Cc1ccc(OCC(=O)O)c(C2c3scnc3CCN2C(=O)OCc2ccccc2)c1 (racemic) [Example 106, (±)-4-(2-Carboxymethoxy-5-cyano-phenyl)-6,7-dihydro-4H-thiazolo[5,4-c]pyridine-5-carboxylic acid benzyl ester] | 3.4
20 | O=C(O)COc1ccc(Cl)cc1C1c2scnc2CCN1C(=O)NCCc1ccccc1 (racemic) [Example 107, (±)-[4-Chloro-2-(5-phenethylcarbamoyl-4,5,6,7-tetrahydro-thiazolo[5,4-c]pyridin-4-yl)-phenoxy]-acetic acid] | 5.7
21 | O=C(O)COc1ccc(Cl)cc1C1c2scnc2CCN1C(=O)NCc1ccccc1Cl (racemic) [Example 108, (±)-{4-Chloro-2-[5-(2-chloro-benzylcarbamoyl)-4,5,6,7-tetrahydro-thiazolo[5,4-c]pyridin-4-yl]-phenoxy}-acetic acid] | 8.9
22 | CCCc1nc2c(s1)C(c1cc(Cl)ccc1OCC(=O)O)N(C(=O)OCc1ccccc1)CC2 (racemic) [Example 111, (±)-4-(2-Carboxymethoxy-5-chloro-phenyl)-2-propyl-6,7-dihydro-4H-thiazolo[5,4-c]pyridine-5-carboxylic acid benzyl ester] | 86.4
23 | O=C(O)COc1ccc(Cl)cc1C1c2sc(-c3ccccc3)nc2CCN1C(=O)OCc1ccccc1 (racemic) [Example 112, (±)-4-(2-Carboxymethoxy-5-chloro-phenyl)-2-phenyl-6,7-dihydro-4H-thiazolo[5,4-c]pyridine-5-carboxylic acid benzyl ester] | 30.9
24 | CS(=O)(=O)Nc1nc2c(s1)C(c1cc(Cl)ccc1OCC(=O)O)N(C(=O)OCc1ccccc1)CC2 (racemic) [Example 113, (±)-4-(2-Carboxymethoxy-5-chloro-phenyl)-2-methanesulfonylamino-6,7-dihydro-4H-thiazolo[5,4-c]pyridine-5-carboxylic acid benzyl ester] | 254
25 | O=C(O)COc1ccc(Cl)cc1C1c2sc(NS(=O)(=O)C3CC3)nc2CCN1C(=O)OCc1ccccc1 (racemic) [Example 114, (±)-4-(2-Carboxymethoxy-5-chloro-phenyl)-2-cyclopropanesulfonylamino-6,7-dihydro-4H-thiazolo[5,4-c]pyridine-5-carboxylic acid benzyl ester] | 678
26 | O=C(O)COc1ccc(Cl)cc1C1c2sc(NC(=O)C3CC3)nc2CCN1C(=O)OCc1ccccc1 (racemic) [Example 115, (±)-4-(2-Carboxymethoxy-5-chloro-phenyl)-2-(cyclopropanecarbonyl-amino)-6,7-dihydro-4H-thiazolo[5,4-c]pyridine-5-carboxylic acid benzyl ester] | 491
27 | CC(=O)Nc1nc2c(s1)C(c1cc(Cl)ccc1OCC(=O)O)N(C(=O)OCc1ccccc1)CC2 (racemic) [Example 116, (±)-2-Acetylamino-4-(2-carboxymethoxy-5-chloro-phenyl)-6,7-dihydro-4H-thiazolo[5,4-c]pyridine-5-carboxylic acid benzyl ester] | 857
28 | O=C(O)COc1ccc(F)cc1C1c2scnc2CCN1C(=O)OCc1ccccc1 (racemic) [Example 118, (±)-4-(2-Carboxymethoxy-5-fluoro-phenyl)-6,7-dihydro-4H-thiazolo[5,4-c]pyridine-5-carboxylic acid benzyl ester] | 8.3
